Results as given in paper PMC7917639, “Nopol-Based Quinoline Derivatives as Antiplasmodial Agents” (Molecules, 2021).
Values joined by “and” are separate entries in the source; they are usually repeats but may differ in a detail not shown here. Equal entries are not always repeated. Where two headings read alike, the source gives them in different places.

Columns and labels:
[1] = system: Human hepatocarcinoma cell line (Hep G2); assay: Cytotoxicity assay (MTT); format: cell-based; details: 72 h
Procedure: (§1) Human hepatocarcinoma cell line (Hep G2, ATCC CRL-11997TM) was used for cytotoxicity studies as previously described. The cells were grown in complete medium (DMEM:F12 containing L-glutamine and sodium bicarbonate, 10% FBS, 1% penicillin/streptomycin, Thermo Fisher Scientific) at 37 °C in 5% CO2 environment. Cells (198 µL, 5 × 10^5/mL) were seeded into 96-well plates and incubated overnight. The cells were treated with the compounds (160–1.25 µM, in triplicates) or DMSO (1%) for 72 h. The cell medium was removed and replaced with DMEM:F12 medium containing MTT (0.5 mg/mL) was added to the cells and incubated for 1.5 h. The MTT-containing medium was gently removed and replaced with DMSO (200 µL/well). The contents of each well were then repeatedly mixed with a multichannel pipette and incubated for 10 min. The plates were read at 570 nm. DMSO-treated (1%) cells were used as negative assay control and SDS (10%) was used as assay positive control. Percent cell viabilities were expressed as a percentage of the mean viability of DMSO-treated (1%) cells.

[2] = system: P. falciparum 3D7 (Pf3D7, chloroquine-sensitive strain); assay: Pf3D7 asexual blood-stage growth inhibition, SYBR Green fluorescence assay; format: cell-based, Plasmodium falciparum; details: for Pf3D7 selectivity index (SI, CC50/EC50): Hep G2 CC50 / Pf3D7 EC50; for EC50: read-out: Pf3D7 EC50; for Antiplasmodial activity against Pf3D7 (in words): chloroquine-sensitive strain
Procedure: a. Pf3D7: 100 μL of complete media (Sigma-Aldrich’s RPMI 1640, 25 mM HEPES, 10 μg/mL gentamicin, 0.5 mM hypoxanthine supplemented with NaHCO3 and 0.5% Albumax II, 37 °C) containing compounds (50–0.3 µM) or 100 µM chloroquine were added to 96 well plates in triplicates. This was followed by the addition of 100 µL erythrocytic asexual culture of Pf3D7 (10% hematocrit and 0.25% ring stage parasitemia), maintained at atmospheric conditions of 1% oxygen, 5% carbon dioxide, and 94% nitrogen, and allowed to grow for 96 h at 37 °C. The cultures were then frozen at −80 °C overnight and thawed at 37 °C for 4 h. Aliquots (100 µL) from each well were transferred to black 96-well plates, 100 μL of 2× SYBR Green (Molecular Probes) in lysis buffer (20 mM Tris at pH 7.5, 5 mM EDTA, 0.008% saponin, 0.08% Triton X-100) was added to each well and mixed thoroughly with a pipette. The plates were incubated in the dark at room temperature for 1 h and read at λex 485 nm and λem 530 nm. Infected and untreated red blood cells (iRBC) cultures served as negative control. Percent inhibitory activities were calculated using (=100 − 100*((Sample − 100 µM CQ)/(iRBC − 100 µM CQ)) and used to plot sigmoidal inhibition curves to obtain the EC50 values.

[3] = system: PfNF54; assay: PfNF54 erythrocytic stage growth inhibition, [3H]-hypoxanthine incorporation assay; format: cell-based, Plasmodium falciparum; details: for EC50: erythrocytic stages, 48 h + 24 h with 3H-hypoxanthine; for PfNF54 selectivity index (SI, CC50/EC50): Hep G2 CC50 / PfNF54 EC50
Procedure: b. PfNH54 and PfK1: The growth inhibitory activities of the compounds against erythrocytic stages of PfNH54 and PfK1 were determined using the [^3H]-hypoxanthine incorporation assay as previously reported. […] The CPMs were expressed as a percentage of the CPMs from the untreated controls and used to estimate the EC50 from sigmoidal inhibition curves. Artemisinin and CQ were used as positive controls.

[4] = system: PfK1; assay: PfK1 erythrocytic stage growth inhibition, [3H]-hypoxanthine incorporation assay; format: cell-based, Plasmodium falciparum; details: for EC50: erythrocytic stages, 48 h + 24 h with 3H-hypoxanthine; for Antiplasmodial activity against K1 strain (in words): multidrug-resistant strain; for PfK1 selectivity index (SI, CC50/EC50): Hep G2 CC50 / PfK1 EC50
Procedure: b. PfNH54 and PfK1: The growth inhibitory activities of the compounds against erythrocytic stages of PfNH54 and PfK1 were determined using the [^3H]-hypoxanthine incorporation assay as previously reported. Parasites in RPMI 1640 medium containing […] (without hypoxanthine) were treated with compounds (50–0.3 µM) in 96 well plates for 48 h at 37 °C in 92% N2, 5% CO2, and 3% O2. ^3H-hypoxanthine (0.5 μCi) was added to each well, incubated for an additional 24 h, harvested onto glass-fiber filters, and washed with distilled water. Radioactivity at each compound concentration was counted using a Betaplate™ liquid scintillation counter (Wallac, Zurich), and the results were recorded as counts per minute (CPM) per well. The CPMs were expressed as a percentage of the CPMs from the untreated controls and used to estimate the EC50 from sigmoidal inhibition curves. Artemisinin and CQ were used as positive controls.

[5] = Cytotoxicity assay (MTT); format: cell-based, Human; details: human
Procedure: as §1

[6] = erythrocytic asexual culture, 96 h, SYBR Green
[7] = Plasmodium falciparum, 3D7, erythrocytic asexual culture, 96 h, SYBR Green
[8] = Plasmodium falciparum, 3D7, 96 h

SMILES | EC50 [2, 6] | CC50 [1] [µM] | Pf3D7 selectivity index (SI, CC50/EC50) [2] | EC50 [3] [µM] | EC50 [4] | Antiplasmodial activity against K1 strain (in words) [4] | also measured
COc1ccc(NC(=O)CC2=CCC3CC2C3(C)C)c2ncccc12 (single isomer, unassigned) [Compound 1] | 5.25 ± 0.7 µM | 70.8 ± 1.26 | 13.4 | – | – | – | –
COc1ccc(NC(=O)CC2=CCC3CC2C3(C)C)c2ncccc12 (single isomer, unassigned) [Compound 2] | 2.72 ± 0.28 µM | > 160 | > 58.8 | – | – | – | –
CC1(C)C2CC=C(CC(=O)Nc3cccc4cccnc34)C1C2 (single isomer, unassigned) [Compound 3, 2-(6,6-dimethylbicyclo[3.1.1]hept-2-en-2-yl)-N-(quinolin-8-yl) Acetamide] | 2.19 ± 0.15 µM | > 160 | > 73.1 | > 50 | > 50 µM | inactive | Antiplasmodial activity against NF54 strain (in words) [3]: inactive
CC1(C)C2CC=C(CC(=O)Nc3cccc4cccnc34)C1C2 (single isomer, unassigned) [Compound 4, 2-(6,6-dimethylbicyclo[3.1.1]hept-2-en-2-yl)-N-(quinolin-8-yl) Acetamide] | 2.57 ± 0.02 µM | > 160 | > 62.3 | > 50 | > 50 µM | inactive | Antiplasmodial activity against NF54 strain (in words) [3]: inactive
Cc1cc(C(=O)OCCC2=CC[C@@H]3C[C@H]2C3(C)C)c2ccc(Cl)cc2n1 (stereo in doubt) [Compound 13, 2-((1S,5R)-6,6-dimethylbicyclo[3.1.1]hept-2-en-2-yl)ethyl-7-chloro-2-methylquinoline-4-carboxylate] | – | – | > 6.9 | – | – | – | CC50 at 72 h ([5]; read-out: Hep G2 CC50): > 160 µM; EC50 [2, 7]: 23 ± 2 µM; Antiplasmodial activity against Pf3D7 (in words) [2]: very weak antiplasmodial activity
CC1(C)[C@@H]2CC=C(CCOC(=O)c3cc4ccccc4nc3Cl)[C@H]1C2 (stereo in doubt) [Compound 14, 2-((1S,5R)-6,6-dimethylbicyclo[3.1.1]hept-2-en-2-yl)ethyl-2-chloroquinoline-3-carboxylate] | – | – | 13.6 | – | – | inactive | CC50 at 72 h ([5]; read-out: Hep G2 CC50): 55.2 ± 1.2 µM; EC50 [2, 7]: 4.04 ± 0.03 µM; Antiplasmodial activity against Pf3D7 (in words) [2]: moderately active; Antiplasmodial activity against NF54 strain (in words) [3]: inactive
Cc1cc(C(=O)OCC[C@@]23O[C@@H]2C[C@@H]2C[C@H]3C2(C)C)c2ccc(Cl)cc2n1 (stereo in doubt) [Compound 16, 2-((1S,2S,4R,6S)-7,7-dimethyl-3-oxatricyclo[4.1.1.0 2,4]octan-2-yl)ethyl-7-chloro-2-methylquinoline-4-carboxylate] | – | – | 1.9 | – | – | – | CC50 at 72 h ([5]; read-out: Hep G2 CC50): 76.8 ± 6.5 µM; EC50 [2, 7]: 40.4 ± 1.58 µM; Antiplasmodial activity against Pf3D7 (in words) [2]: weakly active but nonselective
C[C@@H]1CC[C@H]2[C@@H](C)C(=O)O[C@@H]3O[C@@]4(C)CC[C@@H]1[C@]32OO4 [Artemisinin, reference compound] | – | – | – | – | – | – | EC50 ([3]; Plasmodium falciparum, 72 h): 0.017 ± 0.005 µM; EC50 ([4]; Plasmodium falciparum, 72 h): 0.011 ± 0.005 µM
CCN(CC)CCCC(C)Nc1ccnc2cc(Cl)ccc12 (stereo not shown) [Chloroquine, reference compound] | – | – | – | – | – | – | EC50 [2, 8]: 0.004 ± 0.001 µM
CC1(C)[C@@H]2CC=C(CC(=O)Nc3ccnc4ccccc34)[C@H]1C2 [Compound 5, 2-((1S,5R)-6,6-dimethylbicyclo[3.1.1]hept-2-en-2-yl)-N-(quinolin-4-yl) Acetamide] | 26.4 ± 1.7 µM | 3.98 ± 0.7 | 0.2 | 23.4 ± 0.14 | 13.9 ± 2.1 µM | weakly active | Antiplasmodial activity against NF54 strain (in words) [3]: weakly active; PfNF54 selectivity index (SI, CC50/EC50) [3]: 0.2; PfK1 selectivity index (SI, CC50/EC50) [4]: 0.3
CC1(C)[C@@H]2CC=C(CC(=O)Nc3ccnc4cc(Cl)ccc34)[C@H]1C2 [Compound 6, N-(7-chloroquinolin-4-yl)-2-((1S,5R)-6,6-dimethylbicyclo[3.1.1]hept-2-en-2-yl) Acetamide] | 17.1 ± 1.8 µM | 14.3 ± 1.2 | 0.8 | 21.4 ± 1.7 | 7.84 ± 0.57 µM | weakly active | Antiplasmodial activity against NF54 strain (in words) [3]: weakly active; PfNF54 selectivity index (SI, CC50/EC50) [3]: 0.7; PfK1 selectivity index (SI, CC50/EC50) [4]: 1.8
CC1(C)[C@@H]2CC=C(CC(=O)Oc3ccnc4ccccc34)[C@H]1C2 [Compound 7, quinolin-4-yl-2-((1S,5R)-6,6-dimethylbicyclo[3.1.1]hept-2-en-2-yl) Acetate] | > 50 µM | > 160 | – | > 50 | > 28 µM | – | –
CC1(C)[C@H]2CC=C(CCOC(=O)c3cc4ccccc4[nH]3)[C@@H]1C2 [Compound 15, 2-((1R,5S)-6,6-dimethylbicyclo[3.1.1]hept-2-en-2-yl)ethyl-1H-indole-2-carboxylate] | – | – | > 8.5 | – | – | – | CC50 at 72 h ([5]; Hep G2 cells (human hepatocarcinoma cell line)): > 40 µM; EC50 [2, 8]: 4.71 ± 0.07 µM; Antiplasmodial activity against Pf3D7 (in words) [2]: moderately active
OC(c1cc(C(F)(F)F)nc2c(C(F)(F)F)cccc12)C1CCCCN1 (stereo not shown) [Mefloquine, reference compound] | – | – | – | – | – | – | EC50 [2, 7]: 2.33 ± 2.29 µM; EC50 ([3]; Plasmodium falciparum, 72 h): 0.003 ± 0.002 µM; EC50 ([4]; Plasmodium falciparum, 72 h): 0.117 ± 0.015 µM

More lines, main results first:

EC50 [2, 6] | SMILES | CC50 [1] [µM] | Pf3D7 selectivity index (SI, CC50/EC50) [2] | EC50 [3] [µM] | EC50 [4] | Antiplasmodial activity against K1 strain (in words) [4] | also measured
> 50 µM | CC1(C)[C@@H]2CC=C(CC(=O)Oc3ccnc4cc(Cl)ccc34)[C@H]1C2 [Compound 8, 7-chloroquinolin-4-yl-2-((1S,5R)-6,6-dimethylbicyclo[3.1.1]hept-2-en-2-yl) Acetate] | > 160 | – | 23.3 | 0.16 µM and 0.164 µM | sub-micromolar EC50 | PfNF54 selectivity index (SI, CC50/EC50) [3]: > 6.8; PfK1 selectivity index (SI, CC50/EC50) [4]: > 976
6.2 µM and 6.15 µM | Cc1cc(OC(=O)CC2=CC[C@@H]3C[C@H]2C3(C)C)c2ccc(Cl)c(C)c2n1 [Compound 9, 7-chloro-2,8-dimethylquinolin-4-yl-2-((1S,5R)-6,6-dimethylbicyclo[3.1.1]hept-2-en-2-yl) Acetate] | > 160 | > 26 | – | – | – | –
21.4 ± 5.06 µM | CC1(C)[C@@H]2CC=C(CC(=O)Oc3cc(C(F)(F)F)nc4ccc(F)cc34)[C@H]1C2 [Compound 10, 6-fluoro-2-(trifluoromethyl)quinolin-4-yl-2-((1S,5R)-6,6-dimethylbicyclo[3.1.1]hept-2-en-2yl) Acetate] | 48.5 ± 1.12 | 2.3 | – | – | – | –
17.6 ± 5.27 µM | Cc1c(Cl)ccc2c(OC(=O)CC3=CC[C@@H]4C[C@H]3C4(C)C)ccnc12 [Compound 11, 7-chloro-8-methylquinolin-4-yl-2-((1S,5R)-6,6-dimethylbicyclo[3.1.1]hept-2-en-2-yl) Acetate] | > 160 | >9.1 | – | – | – | –
29.6 ± 0.93 µM | CC1(C)[C@@H]2CC=C(CC(=O)Oc3cc(C(F)(F)F)nc4c(C(F)(F)F)cccc34)[C@H]1C2 [Compound 12, 2,8-bis(trifluoromethyl)quinolin-4-yl-2-((1S,5R)-6,6-dimethylbicyclo[3.1.1]hept-2-en-2-yl) Acetate] | 21.8 ± 1.1 | 0.7 | – | – | – | –
